From PubChem BioAssay AID1996 come the findings set out here.

Converted amounts (≈) assume the structure as drawn.

For the series the following is noted: buffer; pH 7.4; 200.0 µM.
With `FC(F)(F)c1ccc(NCCc2ccccc2)nc1`, the kinetic solubility (commonly solubility judged after dilution from a stock solution rather than from solid) came out at 0.0037 mg/mL (≈ 13.9 µM).
The same measure for `Cc1ccc(N2CC(=O)N(c3ccc(C)cc3)CC2=O)cc1`: 0.0086 mg/mL (≈ 29.2 µM); for `C=CCN1C(=O)C(C)NC1=S` (stereo unspecified): > 0.0255 mg/mL.
As for `CN1CCN(/N=C/c2ccc(N(C)c3ccccc3)cc2)CC1`, the solubility (kinetic) is > 0.0463 mg/mL.
In the case of `Nc1ccc(-c2nc3ccccc3o2)cc1`, the kinetic solubility amounted to 0.0208 mg/mL (≈ 98.9 µM).
As for `Cc1c(Cl)cccc1NC(=O)CCN1C(=O)NC(C)(C)C1=O`, the solubility (kinetic) is > 0.0486 mg/mL.
For `CCCC(=O)Nc1ccc2c(c1)Cc1ccccc1-2`, the solubility (kinetic) turned out to be 0.0015 mg/mL (≈ 5.97 µM).
For the compound `COc1cccc2c1O/C(=N\O)C(C(=O)Nc1ccc(C)cc1)C2` (stereo unspecified), the kinetic solubility came out at 0.0457 mg/mL (≈ 140 µM).
As for `COc1cc(/C=C/C(=O)OCC(=O)c2ccc[nH]2)cc(OC)c1OC`, the figure is 0.0094 mg/mL (≈ 27.2 µM); as for `CN(C)CCOC(=O)NCC12CC3CC(CC(C3)C1)C2.Cl`, > 0.0475 mg/mL; as for `COc1ccc(C(=O)Nc2ccc3c(c2)n(C)c(=O)n3C)cc1OC`, 0.0084 mg/mL (≈ 24.6 µM).
`CCC(C(=O)OCC(=O)N1C(C)CCCC1C)c1ccccc1` (stereo unspecified) showed a solubility (kinetic) of 0.0451 mg/mL (≈ 142 µM).
In turn, `COC(=O)c1scc(C)c1NC(=O)CSc1ccc(Cl)cc1` displayed a solubility (kinetic) of 0.0013 mg/mL (≈ 3.65 µM).
For the compound `CC(C(=O)OCC(=O)c1ccccc1)N1C(=O)c2ccccc2C1=O` (stereo unspecified), the solubility (kinetic) came to 0.0404 mg/mL (≈ 120 µM).
The same measure for `Cc1cc(NC(=O)c2cccs2)ncc1NC(=O)C(C)(C)C`: 0.0386 mg/mL (≈ 122 µM); for `CC(C)(C)c1ccc(C(=O)Nc2ccc(NC(=O)C(=O)O)cc2)o1`: 0.0445 mg/mL (≈ 135 µM); for `Nc1nc(F)nc2c1ncn2[C@@H]1O[C@H](CO)[C@@H](O)[C@H]1O`: > 0.0428 mg/mL.
The compound `O=C(NCc1cccs1)c1cccn2c(=O)c3sccc3nc12` returned a solubility (kinetic) of 0.0006 mg/mL (≈ 1.76 µM).
Turning to `COc1ccccc1NC(=S)NC(=O)Cc1ccccc1`, the solubility (kinetic) stood at 0.0005 mg/mL (≈ 1.66 µM).
The same measure for `CCc1noc(C)c1C(=O)NCCc1c[nH]c2ccccc12`: > 0.0446 mg/mL.
As for `Cc1ccc(C(=O)NCC(=O)Nc2ccncc2)cc1`, the solubility (kinetic) is > 0.0404 mg/mL.
Compound `COCCCn1c(SCC(=O)N2CCOCC2)nc2ccccc2c1=O` gave a kinetic solubility of 0.0522 mg/mL (≈ 138 µM).
`O=C(CN1CCOCC1)Nc1c(Cl)cc(Cl)cc1Cl`: the solubility (kinetic) is > 0.0485 mg/mL.
As to `CC(O)c1nc2ccccc2n1C(C)c1ccccc1` (stereo unspecified), the solubility (kinetic) was > 0.04 mg/mL.
For the compound `Cl.NS(=O)(=O)c1ccc(CCNC/C=C/c2ccccc2)cc1`, the solubility (kinetic) is > 0.0529 mg/mL.
Take `CCc1ccc(NC(=O)NCCN2CCCCC2)cc1`: the solubility (kinetic) is > 0.0413 mg/mL.
Compound `O=C(NCc1ccc(Cl)cc1)c1cc(=O)[nH]c2ccccc12` yielded a solubility (kinetic) of 0.0016 mg/mL (≈ 5.12 µM).
With `CCCCn1c(C)c(C(=O)OCC)c2c(CN3CCCC3)c(O)ccc21`, the kinetic solubility amounted to 0.0531 mg/mL (≈ 148 µM).
`O=C(CNC(=O)c1ccc(Cl)cc1Cl)OCc1cn2cc(Br)ccc2n1`: the kinetic solubility came to 0.0297 mg/mL (≈ 65 µM).
As to `NC(=O)C1CCN(c2ccc(C(F)(F)F)cn2)CC1`, the kinetic solubility was > 0.041 mg/mL.
As for `COc1ccc(NS(=O)(=O)c2cc(NC(=O)c3cncc(Br)c3)ccc2OC)cc1`, the figure is 0.0219 mg/mL (≈ 44.5 µM); as for `NC(=S)c1cc2cc(Cl)ccc2oc1=O`, 0.0016 mg/mL (≈ 6.68 µM).
Compound `Cc1[nH]c2c(C)cccc2c1CN1CCC(CO)(Cc2ccccc2)CC1` registered a kinetic solubility of 0.0288 mg/mL (≈ 79.4 µM).
As for `CC(=O)Nc1ccc(NC(=S)NC(=O)C2CCCC2)cc1`, the figure is > 0.0458 mg/mL.
The same measure for `O=C(O)c1cccc(N2C(=O)CSC2c2ccccc2)c1` (stereo unspecified): > 0.0449 mg/mL; for `CCOC(=O)C1CCCN(C(=O)CNC(=O)c2ccc(Br)o2)C1` (stereo unspecified): > 0.0581 mg/mL.
Take `Cn1cccc1C(=O)NCC(c1ccc(F)cc1)N1CCOCC1` (stereo unspecified): the solubility (kinetic) worked out at 0.0473 mg/mL (≈ 143 µM).
For `O=C(NC1CCN(Cc2ccccc2Cl)CC1)c1ccccc1`, the solubility (kinetic) is 0.0476 mg/mL (≈ 145 µM).
The same measure for `COc1ccc(OCC(=O)Nc2ccccc2Cl)cc1`: 0.0045 mg/mL (≈ 15.4 µM); for `CCc1ccc(/C([O-])=C(/C(=S)NCCN2CCOCC2)[n+]2ccccc2)cc1`: 0.0554 mg/mL (≈ 139 µM); for `CN(c1cccc(NS(=O)(=O)c2ccccc2)c1)S(C)(=O)=O`: > 0.0511 mg/mL.
Consider `COc1ccc(C(CNC(=O)c2cc3c(s2)CCCC3)N2CCOCC2)cc1` (stereo unspecified), for which the kinetic solubility was 0.0364 mg/mL (≈ 90.9 µM).
With `Cc1cc(C)cc(CC2CC(=O)N(c3ccc([N+](=O)[O-])cc3)C2=O)c1` (stereo unspecified), the kinetic solubility was < 0.0004 mg/mL.
The compound `O=[N+]([O-])c1ccc(-c2nc(C(Cl)Cl)c3ccccc3n2)cc1` yielded a solubility (kinetic) of 0.0005 mg/mL (≈ 1.5 µM).
The same measure for `O=c1c(C/C=C/c2ccccc2)c(O)ccn1Cc1cccc(Cl)c1`: < 0.0008 mg/mL; for `CCCNC(=O)CN1C(=O)NC(CC)(c2ccc(F)cc2)C1=O` (stereo unspecified): > 0.0482 mg/mL.
For the compound `CN(C(=O)COC(=O)C12CC3CC(CC(Cl)(C3)C1)C2)c1ccccc1`, the kinetic solubility came to 0.0214 mg/mL (≈ 59.1 µM).
In the case of `CCC(Sc1nc2ncnc(N)c2[nH]1)C(=O)O` (stereo unspecified), the kinetic solubility came out at 0.0341 mg/mL (≈ 135 µM).
`COc1cccc(-c2c(C#N)c(N)nc3c2c(=O)nc2sccn23)c1` showed a solubility (kinetic) of 0.023 mg/mL (≈ 65.8 µM).
As for `O=C(CCl)N(c1ccccc1)C1CCCCC1`, the figure is 0.0366 mg/mL (≈ 145 µM).
As for `CCOC(=O)CSc1nc2ccccc2c(=O)n1CC(C)C`, the kinetic solubility is 0.0042 mg/mL (≈ 13.1 µM).
